As a reminder, the MIC is the lowest concentration that inhibits growth of the organism.

SMILES strings stand for the structures.

The results in this text go back to ChEMBL document CHEMBL5584236, “Development of novel bisphenol derivatives with a membrane-targeting mechanism as potent gram-positive antibacterial agents” (Eur J Med Chem, 2024).

The subject of data set [1] is Staphylococcus aureus. Briefly: Antibacterial activity against methicillin-resistant Staphylococcus aureus N315 assessed as reduction in bacterial growth incubated for 22 to 24 hrs in presence of FeCl3 by CLSI based broth microdilution method. The following applies: time 22-24 hrs. In kind it is functional.
Data set [2] deals with Staphylococcus epidermidis. Briefly: Antibacterial activity against Staphylococcus epidermidis CMCC26069 assessed as reduction in microbial growth incubated for 22 to 24 hrs by CLSI based broth microdilution method. Type of data set: functional. The note with it: time 22-24 hrs. For orientation: Broth dilution looks for growth in wells or tubes with falling amounts of substance.

In data set [3] the test system is Staphylococcus aureus. The data set can be described thus: Synergistic […] activity against Staphylococcus aureus ATCC29213 assessed as fractional inhibitory concentration index incubated for 22 to 24 hrs in presence of mupirocin by CLSI based broth microdilution method. The note with it: time 22-24 hrs. In kind it is functional.
The test system of data set [4] is Staphylococcus aureus. The data set can be described thus: Bactericidal activity against methicillin-resistant Staphylococcus aureus NCTC10442 assessed as cell killing at 4 times of MIC measured with in 2 hrs by time kill assay relative to control. In kind it is functional.
Data set [5] concerns Staphylococcus aureus. Briefly: Bactericidal activity against Staphylococcus aureus ATCC29213 assessed as log reduction in bacterial load at 8 times of MIC measured with in 0.5 hrs by time kill assay. Type of data set: functional.
A further data set has as its system Acinetobacter baumannii. The data set can be described thus: Antibacterial activity against Acinetobacter baumannii R28889 assessed as reduction in microbial growth incubated for 22 to 24 hrs by CLSI based broth microdilution method. In kind it is functional. The following applies: time 22-24 hrs.
Data set [6] can be described thus: Cytotoxicity against HEK293 cells assessed as viable cells at 25 ug/ml incubated for 24 hrs by CCK-8 assay relative to control. The following applies: human, at 25 µg/mL, read-out: Activity. Type of data set: toxicity, cell-based. On the technique in general: Tetrazolium dyes change colour on reduction, which living cells bring about.
In data set [7] the test system is Staphylococcus aureus. The data set can be described thus: Synergistic […] activity against methicillin-resistant Staphylococcus aureus NCTC10442 assessed as fractional inhibitory concentration index incubated for 22 to 24 hrs in presence of linezolid by CLSI based broth microdilution method. In kind it is functional. The following applies: time 22-24 hrs.

The subject of data set [8] is Staphylococcus aureus. Briefly: Antibacterial activity against Staphylococcus aureus ATCC25923 assessed as reduction in microbial growth incubated for 22 to 24 hrs by CLSI based broth microdilution method. Type of data set: functional. The following applies: time 22-24 hrs.
Data set [9] relates to Staphylococcus aureus. The data set can be described thus: Antibacterial activity against methicillin-resistant Staphylococcus aureus N315 assessed as reduction in bacterial growth incubated for 22 to 24 hrs in presence of CaCl2 by CLSI based broth microdilution method. In kind it is functional. The note with it: time 22-24 hrs.
For data set [10], the system named is Staphylococcus aureus. Briefly: Synergistic […] activity against Staphylococcus aureus ATCC29213 assessed as fractional inhibitory concentration index incubated for 22 to 24 hrs in presence of vancomycin by CLSI based broth microdilution method. In kind it is functional. The note with it: time 22-24 hrs.
Data set [11] concerns Staphylococcus epidermidis. Briefly: Antibacterial activity against Staphylococcus epidermidis ATCC12228 assessed as reduction in microbial growth incubated for 22 to 24 hrs by CLSI based broth microdilution method. Type of data set: functional. The following applies: time 22-24 hrs.

For the compound `COC(=O)[C@H](CCCNC(=N)N)NC(=O)[C@H](CCCNC(=N)N)NC(=O)COc1ccc(S(=O)(=O)c2ccc(OC/C=C(/C)CCC=C(C)C)cc2)cc1`, the MIC in the data set with Staphylococcus aureus [1] was determined as 1.56 µg/mL; in [2], 1.56 µg/mL; with Acinetobacter baumannii it was 6.25 µg/mL; in the data set with Staphylococcus aureus [8] it was 3.12 µg/mL; in the data set with Staphylococcus aureus [9], 3.12 µg/mL; in [11] it was 1.56 µg/mL. The figures for the “fractional inhibitory concentration index (FICI)” value in the data set on Staphylococcus aureus [3], in the data set with Staphylococcus aureus [7] and with Staphylococcus aureus [10] were 0.625, 0.27 and 0.5, respectively. For the same compound, the Activity in the data set with Staphylococcus aureus [4] was 99.99%. Also, the “log(activity)” value in the data set on Staphylococcus aureus [5] came to 3. Further, the viability at 24 h, 25 ug/ml in data set [6] stood at 93.8%.
